Values quoted from earlier work in paper PMC3880798 (Clinical cancer research : an official journal of the …, 2013).
Like-named read-outs stand apart in the source and are kept apart here.

Key:
c-Kit = details: intact cellular systems; cited from earlier work
GIST = details: cited from earlier work
[1] = cited from earlier work

For `Cc1ccc(NC(=O)c2ccc(CN3CCN(C)CC3)cc2)cc1Nc1nccc(-c2cccnc2)n1` [imatinib], the “Potency for wild-type versus mutant c-Kit” value (c-Kit) is given as “significantly lower potency for wild-type c-Kit relative to mutant c-Kit”, the “Median time to progression” value (GIST) is given as “approximately 2 years” and the “Median duration of response” value (GIST; first-line) is given as “about 2 years”.

In the case of `Cc1ccc(Nc2nccc(N(C)c3ccc4c(C)n(C)nc4c3)n2)cc1S(N)(=O)=O` [pazopanib], the Patients with proteinuria [1] is listed as 51%.

For `Cc1cn(-c2cc(NC(=O)c3ccc(C)c(Nc4nccc(-c5cccnc5)n4)c3)cc(C(F)(F)F)c2)cn1` [nilotinib], the Disease stabilization (GIST) is listed as 38% and the “Median duration of disease stabilization” value (GIST) is listed as 12 weeks.

For `CCN(CC)CCNC(=O)c1c(C)[nH]c(/C=C2\C(=O)Nc3ccc(F)cc32)c1C` [sunitinib], the “Incidence of PPE” value [1] is listed as “up to 20%” and the “Median time to progression” value (GIST; standard second-line therapy) is listed as 27 weeks.
